Laboratory results published in patent publication US20110105538A1, “DRUG RESPONSE MARKERS” (GUY'S & ST THOMAS'S NHS FOUNDATION TRUST, priority 2008, published 2011).
Read-outs that look alike come from different tables or passages of the source.

How the values were obtained:
[1] = system: patients with Inflammatory Bowel Disease; conditions: for Allele frequencies: Deletion allele / Allele frequencies: Insertion Allele: number of alleles (%); for Genotype: Insertion no / Genotype: Insertion yes / Genotype frequencies: Insertion no / Genotype frequencies: Insertion yes: number of patients
[2] = system: patients with IBD (Inflammatory Bowel Disease); assay: Prospective cohort starting 2 mg/kg AZA for IBD (Example 2): response versus AOX3404A>G, TPMT activity and HLA-G markers
[3] = system: patients with Inflammatory Bowel Disease; conditions: for Genotype frequencies: Insertion no / Genotype frequencies: Insertion yes: number of patients (%); for Allelic frequencies: Deletion allele / Allelic frequencies: Insertion Allele: number of alleles (%)
[4] = Crohn's Disease Patients, Outcome Failure
[5] = Crohn's Disease Patients, Outcome Response
[6] = Ulcerative Colitis Patients, Outcome Failure
[7] = Ulcerative Colitis Patients, Outcome Response
[8] = of cohort of 182 patients starting 2 mg/kg
[9] = number of patients with side effect

Cn1cnc([N+](=O)[O-])c1Sc1ncnc2nc[nH]c12 [azathioprine]
Allele frequencies: Deletion allele ([1]; All Patients, Outcome Failure): 50 (64%)
Allele frequencies: Insertion Allele ([1]; All Patients, Outcome Failure): 30 (36%)
Allele frequencies: Deletion allele ([1]; All Patients, Outcome Response): 39 (34%)
Allele frequencies: Insertion Allele ([1]; All Patients, Outcome Response): 75 (65%)
Genotype: Insertion no ([1]; CD, Fail): 2
Genotype: Insertion yes ([1]; CD, Fail): 17
Genotype: Insertion no ([1]; CD, Response): 15
Genotype: Insertion yes ([1]; CD, Response): 14
Allele frequencies: Deletion allele [1, 4]: 14 (37%)
Allele frequencies: Insertion Allele [1, 4]: 24 (63%)
Allele frequencies: Deletion allele [1, 5]: 45 (69%)
Allele frequencies: Insertion Allele [1, 5]: 18 (31%)
Genotype: Insertion no ([1]; UC, Fail): 3
Genotype: Insertion yes ([1]; UC, Fail): 18
Genotype: Insertion no ([1]; UC, Response): 10
Genotype: Insertion yes ([1]; UC, Response): 18
Allele frequencies: Deletion allele [1, 6]: 16 (38%)
Allele frequencies: Insertion Allele [1, 6]: 26 (62%)
Allele frequencies: Deletion allele [1, 7]: 45 (62%)
Allele frequencies: Insertion Allele [1, 7]: 21 (37%)
Genotype frequencies: Insertion no ([1]; all patients, Outcome Fail): 21
Genotype frequencies: Insertion yes ([1]; all patients, Outcome Fail): 30
Genotype frequencies: Insertion no ([1]; all patients, Outcome Response): 50
Genotype frequencies: Insertion yes ([1]; all patients, Outcome Response): 32
Fisher's exact test OR ([1]; allele frequencies, All Patients): OR = 3.2
Fisher's exact test OR ([1]; allele frequencies, Crohn's Disease Patients): OR = 4.2
Fisher's exact test OR ([1]; allele frequencies, Ulcerative Colitis Patients): OR = 3.4
Fisher's exact test OR ([1]; genotype frequencies, all patients): OR = 2.2,
Fisher's exact test OR ([1]; genotype, CD): OR = 9,
Fisher's exact test OR ([1]; genotype, UC): OR = 3,
patients identified as responders to therapy ([1]; of 100 patients completing minimum three months, steroid withdrawal and Harvey Bradshaw index less than four): 50 patients
withdrew due to intolerable side-effects ([1]; of the 140 patients recruited): 40
non-responders [2, 8]: 44
responders [2, 8]: 66
those discontinuing treatment due to side effects [2, 8]: 72
chance of responding ([2]; those with all adverse predictors): 14%
chance of responding ([2]; those with no adverse predictors): 95%

CN(Cc1cnc2nc(N)nc(N)c2n1)c1ccc(C(=O)N[C@@H](CCC(=O)O)C(=O)O)cc1 [methotrexate]
association between side effects and folate supplementation ([3]; 94 patients on folate, 39 never on folate): No association
Genotype frequencies: Insertion no ([3]; Outcome Fail (91 pts.)): 21 (23%%)
Genotype frequencies: Insertion yes ([3]; Outcome Fail (91 pts.)): 70 (77%)
Allelic frequencies: Deletion allele ([3]; Outcome Failure): 86 (47%)
Allelic frequencies: Insertion Allele ([3]; Outcome Failure): 96 (52%)
Genotype frequencies: Insertion no ([3]; Outcome Response (91 pts.)): 40 (44%)
Genotype frequencies: Insertion yes ([3]; Outcome Response (91 pts.)): 51 (56%)
Allelic frequencies: Deletion allele ([3]; Outcome Response): 113 (62%)
Allelic frequencies: Insertion Allele ([3]; Outcome Response): 69 (37%)
Fisher's exact test OR ([3]; allelic frequencies, response vs failure): OR = 1.8
Fisher's exact test OR ([3]; genotype frequencies, response vs fail): OR = 2.6,
patients developed side effects ([3]; methotrexate group): 45 patients
patients withdrawn from therapy as a direct consequence of their side-effect ([3]; methotrexate group): 21 patients
abdominal pain [3, 9]: one
alopecia [3, 9]: one
haematological abnormalities including neutropenia [3, 9]: four
minor infections [3, 9]: four
mucositis [3, 9]: two
muscle and joint pains [3, 9]: three
nausea [3, 9]: 16
skin rash [3, 9]: three
transient LFT abnormalities [3, 9]: 10
patients responded to treatment (percent) ([3]; of 187 patients completing at least three months of therapy): 51%
patients responded to treatment ([3]; of 187 patients completing at least three months of therapy, response = steroid withdrawal or documented efficacy): 97 patients
response to treatment between administration regimes ([3]; oral vs subcutaneous vs intramuscular induction progressing to oral): no difference in the response to treatment
